Literature values as cited in US20120101390A1, “Multi-Modal Imaging for Diagnosis of Early Stage Epithelial Cancers” (priority 2010, published 2012).

Target: T1, integrin αvβ3 (Homo sapiens, UniProt P05106+P06756)
T1 construct: integrin αvβ3-positive U87MG xenograft models; endogenous in cells; host or cells: U87MG (tumour xenograft)
Settings: integrin αvβ3-positive U87MG xenograft models

T1 sequence (P06756 31-889 limits assumed): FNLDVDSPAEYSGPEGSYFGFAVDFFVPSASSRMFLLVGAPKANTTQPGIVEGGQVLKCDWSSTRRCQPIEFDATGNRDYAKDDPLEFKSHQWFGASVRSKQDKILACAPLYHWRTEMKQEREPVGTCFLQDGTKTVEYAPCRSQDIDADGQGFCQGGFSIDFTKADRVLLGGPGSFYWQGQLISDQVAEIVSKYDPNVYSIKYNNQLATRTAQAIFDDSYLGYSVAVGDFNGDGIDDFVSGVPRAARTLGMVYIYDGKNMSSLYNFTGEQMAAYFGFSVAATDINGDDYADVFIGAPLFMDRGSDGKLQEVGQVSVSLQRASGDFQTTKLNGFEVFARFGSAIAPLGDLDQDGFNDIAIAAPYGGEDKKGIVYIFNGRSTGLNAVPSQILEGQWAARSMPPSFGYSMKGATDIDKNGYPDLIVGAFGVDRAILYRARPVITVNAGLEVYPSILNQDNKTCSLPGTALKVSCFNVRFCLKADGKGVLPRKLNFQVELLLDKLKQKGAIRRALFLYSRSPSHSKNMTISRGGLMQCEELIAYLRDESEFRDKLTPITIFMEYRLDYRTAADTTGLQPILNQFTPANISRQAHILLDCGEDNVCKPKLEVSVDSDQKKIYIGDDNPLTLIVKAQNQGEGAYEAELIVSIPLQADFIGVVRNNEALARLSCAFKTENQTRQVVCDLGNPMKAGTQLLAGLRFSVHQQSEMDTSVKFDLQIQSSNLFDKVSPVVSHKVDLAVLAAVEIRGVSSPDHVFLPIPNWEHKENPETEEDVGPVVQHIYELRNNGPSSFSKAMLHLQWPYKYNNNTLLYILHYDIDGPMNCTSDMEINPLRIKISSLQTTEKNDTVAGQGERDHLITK
T1 sequence (P06756 891-1048 limits assumed): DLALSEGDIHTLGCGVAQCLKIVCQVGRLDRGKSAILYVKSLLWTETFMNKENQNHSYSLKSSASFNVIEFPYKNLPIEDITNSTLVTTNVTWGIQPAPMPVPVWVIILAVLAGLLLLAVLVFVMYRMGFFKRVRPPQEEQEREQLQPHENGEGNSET
T1 sequence (P05106 27-788): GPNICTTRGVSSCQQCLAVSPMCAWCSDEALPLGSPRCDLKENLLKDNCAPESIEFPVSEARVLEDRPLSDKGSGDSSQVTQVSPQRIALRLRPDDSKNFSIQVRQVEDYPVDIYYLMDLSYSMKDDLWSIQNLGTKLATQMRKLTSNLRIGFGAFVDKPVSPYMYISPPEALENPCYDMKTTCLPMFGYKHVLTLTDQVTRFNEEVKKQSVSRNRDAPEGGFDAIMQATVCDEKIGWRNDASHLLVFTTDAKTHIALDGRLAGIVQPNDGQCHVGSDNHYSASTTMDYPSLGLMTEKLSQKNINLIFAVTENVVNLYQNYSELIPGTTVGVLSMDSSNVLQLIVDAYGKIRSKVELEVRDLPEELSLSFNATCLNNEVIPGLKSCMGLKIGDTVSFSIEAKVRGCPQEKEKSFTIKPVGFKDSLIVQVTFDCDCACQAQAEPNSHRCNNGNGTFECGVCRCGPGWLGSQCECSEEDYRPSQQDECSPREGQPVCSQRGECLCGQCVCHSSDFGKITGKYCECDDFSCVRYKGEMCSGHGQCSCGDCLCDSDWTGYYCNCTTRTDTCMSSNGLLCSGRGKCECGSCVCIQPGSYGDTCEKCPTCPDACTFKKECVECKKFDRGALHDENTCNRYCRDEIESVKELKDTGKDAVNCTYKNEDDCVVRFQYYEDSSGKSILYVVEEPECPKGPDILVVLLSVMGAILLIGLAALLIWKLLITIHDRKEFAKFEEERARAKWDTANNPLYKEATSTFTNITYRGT

binding relative to the monomeric counterpart | Substance
stronger binding | E-[G-G-G-c(RGDfK)]2
stronger binding | E-[c(RGDfK)]2
stronger binding | E-{G-[c(RGDfK)]2}2
